# Laboratory results reported in BindingDB's records for doi:10.1021/jm970470c (Warner-Lambert, 1997).
# Test: Concentration required to inhibit 50% of the cultured colonies of H-Ras-Fcells.
row,Compound,IC50 [nM]
1,O=C(CN(Cc1ccc(OCc2ccccc2)cc1)C(=O)[C@H](Cc1cnc[nH]1)NC(=O)OCc1ccccc1)NCC1(c2ccccc2)CCC1 [[(S)-1-((4-Benzyloxy-benzyl)-{[(1-phenyl-cyclobutylmethyl)-carbamoyl]-methyl}-carbamoyl)-2-(3H-imidazol-4-yl)-ethyl]-carbamic acid benzyl ester],88
2,O=C(CN(Cc1ccc(OCc2ccccc2)cc1)C(=O)[C@H](Cc1cnc[nH]1)NC(=O)OCc1ccccc1)NCC1(c2ccccc2)CCCC1 [[(S)-1-((4-Benzyloxy-benzyl)-{[(1-phenyl-cyclopentylmethyl)-carbamoyl]-methyl}-carbamoyl)-2-(3H-imidazol-4-yl)-ethyl]-carbamic acid benzyl ester],330
3,O=C(CN(Cc1ccc(OCc2ccccc2)cc1)C(=O)[C@H](Cc1cnc[nH]1)NC(=O)OCc1ccccc1)NCC1(c2ccccc2)CC1 [[(S)-1-((4-Benzyloxy-benzyl)-{[(1-phenyl-cyclopropylmethyl)-carbamoyl]-methyl}-carbamoyl)-2-(3H-imidazol-4-yl)-ethyl]-carbamic acid benzyl ester],180
4,N#CC(CNC(=O)CN(Cc1ccc(OCc2ccccc2)cc1)C(=O)[C@H](Cc1cnc[nH]1)NC(=O)OCc1ccccc1)c1ccccc1 (stereo partly drawn) [[(S)-1-{(4-Benzyloxy-benzyl)-[(2-cyano-2-phenyl-ethylcarbamoyl)-methyl]-carbamoyl}-2-(3H-imidazol-4-yl)-ethyl]-carbamic acid benzyl ester],190
5,CCC(CC)(CNC(=O)CN(Cc1ccc(OCc2ccccc2)cc1)C(=O)[C@H](Cc1cnc[nH]1)NC(=O)OCc1ccccc1)c1ccccc1 [[(S)-1-{(4-Benzyloxy-benzyl)-[(2-ethyl-2-phenyl-butylcarbamoyl)-methyl]-carbamoyl}-2-(3H-imidazol-4-yl)-ethyl]-carbamic acid benzyl ester],> 1000
6,CC(C)(CNC(=O)CN(Cc1ccc(OCc2ccccc2)cc1)C(=O)[C@H](Cc1cnc[nH]1)NC(=O)OCc1ccccc1)c1ccccc1 [[(S)-1-{(4-Benzyloxy-benzyl)-[(2-methyl-2-phenyl-propylcarbamoyl)-methyl]-carbamoyl}-2-(3H-imidazol-4-yl)-ethyl]-carbamic acid benzyl ester],180
7,CCC(CNC(=O)CN(Cc1ccc(OCc2ccccc2)cc1)C(=O)[C@H](Cc1cnc[nH]1)NC(=O)OCc1ccccc1)c1ccccc1 (stereo partly drawn) [[(S)-1-{(4-Benzyloxy-benzyl)-[(2-phenyl-butylcarbamoyl)-methyl]-carbamoyl}-2-(3H-imidazol-4-yl)-ethyl]-carbamic acid benzyl ester],400
8,CCCC(CNC(=O)CN(Cc1ccc(OCc2ccccc2)cc1)C(=O)[C@H](Cc1cnc[nH]1)NC(=O)OCc1ccccc1)c1ccccc1 (stereo partly drawn) [[(S)-1-{(4-Benzyloxy-benzyl)-[(2-phenyl-pentylcarbamoyl)-methyl]-carbamoyl}-2-(3H-imidazol-4-yl)-ethyl]-carbamic acid benzyl ester],> 1000

# Continued, values first:
row,IC50 [nM],Compound
1,4300,O=C(CN(Cc1ccc(OCc2ccccc2)cc1)C(=O)[C@H](Cc1cnc[nH]1)NC(=O)OCc1ccccc1)NCCc1ccccc1 [[(S)-1-[(4-Benzyloxy-benzyl)-(phenethylcarbamoyl-methyl)-carbamoyl]-2-(1H-imidazol-4-yl)-ethyl]-carbamic acid benzyl ester]
2,14300,O=C(CN(Cc1ccc(OCc2ccccc2)cc1)C(=O)[C@H](Cc1cnc[nH]1)NC(=O)OCc1ccccc1)NCCOCc1ccccc1 [[(S)-1-{(4-Benzyloxy-benzyl)-[(2-benzyloxy-ethylcarbamoyl)-methyl]-carbamoyl}-2-(1H-imidazol-4-yl)-ethyl]-carbamic acid benzyl ester]
3,310,CC(CNC(=O)CN(Cc1ccc(OCc2ccccc2)cc1)C(=O)[C@H](Cc1cnc[nH]1)NC(=O)OCc1ccccc1)c1ccccc1 (stereo partly drawn) [[(S)-1-{(4-Benzyloxy-benzyl)-[(2-phenyl-propylcarbamoyl)-methyl]-carbamoyl}-2-(3H-imidazol-4-yl)-ethyl]-carbamic acid benzyl ester]
4,710,C[C@H](Cc1ccccc1)NC(=O)CN(Cc1ccc(OCc2ccccc2)cc1)C(=O)[C@H](Cc1cnc[nH]1)NC(=O)OCc1ccccc1 [[(S)-1-{(4-Benzyloxy-benzyl)-[((R)-1-methyl-2-phenyl-ethylcarbamoyl)-methyl]-carbamoyl}-2-(3H-imidazol-4-yl)-ethyl]-carbamic acid benzyl ester]
5,570,C[C@@H](CNC(=O)CN(Cc1ccc(OCc2ccccc2)cc1)C(=O)[C@H](Cc1cnc[nH]1)NC(=O)OCc1ccccc1)c1ccccc1 [[(S)-1-{(4-Benzyloxy-benzyl)-[((R)-2-phenyl-propylcarbamoyl)-methyl]-carbamoyl}-2-(3H-imidazol-4-yl)-ethyl]-carbamic acid benzyl ester]
6,6300,C[C@@H](Cc1ccccc1)NC(=O)CN(Cc1ccc(OCc2ccccc2)cc1)C(=O)[C@H](Cc1cnc[nH]1)NC(=O)OCc1ccccc1 [[(S)-1-{(4-Benzyloxy-benzyl)-[((S)-1-methyl-2-phenyl-ethylcarbamoyl)-methyl]-carbamoyl}-2-(3H-imidazol-4-yl)-ethyl]-carbamic acid benzyl ester]
7,300,C[C@H](CNC(=O)CN(Cc1ccc(OCc2ccccc2)cc1)C(=O)[C@H](Cc1cnc[nH]1)NC(=O)OCc1ccccc1)c1ccccc1 [[(S)-1-{(4-Benzyloxy-benzyl)-[((S)-2-phenyl-propylcarbamoyl)-methyl]-carbamoyl}-2-(3H-imidazol-4-yl)-ethyl]-carbamic acid benzyl ester]
